Experimental findings from patent US11225460B2, “Pyrrolidineamide derivatives and uses thereof” (SUNSHINE LAKE PHARMA CO., LTD., priority 2019, dated 2022) are described below.

Series [1] in a line: Pharmacokinetic evaluation after intravenous or gavage administration in dogs. It counts as in vivo, Beagle dogs. As to conditions: for AUC(0-inf) / AUC(0-t) / Cmax / MRT inf / Tmax / clearance / half-life: beagle, dog, plasma. On the procedure: The LC-MS/MS system comprises Agilent 1200 series vacuum degassing furnace, quaternary pumps, well-plate autosampler, thermostatted column compartment, the API4000Qtrap Triple Quadrupole Mass Spectrometer with an electrospray ionization (ESI) source. Quantitative analysis was carried out using MRM mode. The parameters for MRM transitions are in Table 2.
Analysis was carried out on waters xbridge C18 (2.1×50 mm, […] column, 0.5 μL of sample), the analytic conditions are mobile phases cosisting of water+2 mM ammonium formate+0.1% formic acid (Phase A) and methanol+2 mM ammonium formate+0.1% formic acid (Phase B). The flow rate was 0.4 mL/min. And the gradient of Mobile phase was in Table 3.
Each animal species was divided into two groups: one was administered intravenously and the other was administered intragastrically. The compounds disclosed herein were administered in form of a solution containing 5% DMSO+5% Kolliphor HS15+90% Saline. For the group of intravenous administration, the administration dose was 1 mg/kg, and vein blood samples (0.3 ml) were collected at the time points of 0.083, 0.25, 0.5, 1.0, 2.0, 4.0, 6.0, 8.0 and 24 h after drug administration, then plasma solutions were collected by centrifuging each blood sample at 3000 rpm or 4000 rpm for 10 minutes and kept at −20° C. or −70° C. For the group of intragastric administration, the administration dose was 5 mg/kg, and vein blood samples (0.3 mL) were collected at the time points of 0.25, 0.5, 1.0, 2.0, 4.0, 6.0, 8.0 and 24 h after drug administration, then plasma solutions were collected by centrifuging each blood sample at 3000 rpm or 4000 rpm for 10 minutes and kept at −20° C. or −70° C.
20 μL of plasma was blended with 120 μl, 50 ng/ml propranolol standard water solution, then the mixture was extracted with 1.0 mL methyl tert-butyl ether (MTBE), 0.7 mL of supernatant was dried by blow with nitrogen and then dissolved again with 220 μL methanol water (methanol/water (v/v)=1/1). LC-MS/MS method was used to detect the concentration of the target compounds, and […] was used to calculate the pharmacokinetic parameters.

Series [2] has as its target T1, Human recombinant monoamine oxidase A (Homo sapiens, UniProt P21397).
T1 construct: host or cells: Sf9 cells
T1 sequence (P21397 1-527): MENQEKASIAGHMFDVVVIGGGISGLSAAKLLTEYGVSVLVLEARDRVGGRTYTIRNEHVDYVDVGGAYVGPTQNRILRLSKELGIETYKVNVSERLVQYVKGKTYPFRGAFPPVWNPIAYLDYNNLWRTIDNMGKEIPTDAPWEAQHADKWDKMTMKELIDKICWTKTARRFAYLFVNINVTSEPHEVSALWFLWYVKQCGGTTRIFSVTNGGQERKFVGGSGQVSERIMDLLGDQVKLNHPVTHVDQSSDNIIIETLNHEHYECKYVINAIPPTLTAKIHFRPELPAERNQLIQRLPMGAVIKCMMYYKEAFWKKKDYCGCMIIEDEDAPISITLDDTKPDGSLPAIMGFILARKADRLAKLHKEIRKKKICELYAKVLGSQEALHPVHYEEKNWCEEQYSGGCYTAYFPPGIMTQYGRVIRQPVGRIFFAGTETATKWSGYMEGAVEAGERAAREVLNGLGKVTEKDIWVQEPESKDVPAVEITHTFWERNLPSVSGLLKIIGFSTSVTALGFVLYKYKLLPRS
The series can be described thus: Inhibitory effect on the activity of monoamine oxidase A. It counts as biochemical. Particulars: human recombinant MAO-A, substrate p-tyramine hydrochloride. On the procedure: Human recombinant monoamine oxidase A expressed in Sf9 cells was used in the test system. In the experiment, firstly, the recombinant monoamine oxidase A was dissolved in the pre-configured HEPES buffer (0.8% NaCl, 0.037% KCl, 0.0135% Na2HPO4.2H2O, 0.1% Glucan, 0.5% HEPES, pH=7.0) at a concentration of 0.3 μg/μL. To each well of a 384-well plate was added 10 μL of monoamine oxidase A solution, and the test compound with different concentrations (the final concentration of DMSO was 1%) (10 gradient concentrations were 10 mM, 1 mM, 100 μM, 10 μM, 1 μM, 100 nM, 10 nM, 1 nM, 0.1 nM, 0.01 nM) were added into the wells, respectively. The standard reference compound was Clorgyline, the plate was incubated at room temperature for 15 min. Then, each well filled with […] (p-Tyramine hydrochloride, 1 mM) was incubated at room temperature for 60 min. Then 20 μL of fluorescein detection reagent was added to each well, which was fully blended and incubated at room temperature for 20 minutes to produce stable fluorescence signal. The fluorescence signal was read by fluorescein labeling instrument, and the value was expressed by relative light intensity (RLU). The inhibitory rate on enzyme activity was calculated according to the experimental results, the calculated formula: Inh %=(Max−Signal)/(Max−Min)*100, wherein Max was the detected value at the maximum concentration of the sample, Min was the detected value at the minimum concentration of the sample, and Signal was the detected value at the current concentration of the sample.
The standard curve was obtained through the series concentration by experimental test to calculate the IC50.

Usually AUC(0-inf) stands for total exposure, with the tail of the curve extrapolated. A word on the AUC(0-t): it is the area under the concentration-time curve up to a stated or last time point. Low readings indicate less exposure, high ones more exposure. Broadly, the Cmax is the highest concentration seen after dosing. Broadly, the MRT inf is the average time that molecules of a dose stay in the body. For orientation: Tmax means the time at which the peak concentration occurs. The term half-life denotes how long it takes for the measured level to halve. Lower therefore signals fast loss. For orientation: IC50 means the point on the concentration scale where inhibition reaches its midpoint. In series [1] (iv, i.v group, 1 mg/kg), `NC(=O)[C@@H]1C[C@H](F)CN1Cc1ccc(OCc2cccc(F)c2)cc1` [Example 1, (2S,4S)-4-fluoro-1-(4-(3-fluorobenzyloxy)benzyl)pyrrolidine-2-formamide] showed an AUC(0-inf) of 1500 ng·h/mL, an AUC(0-t) of 1480 ng·h/mL, a Cmax of 1230 ng/mL and an MRT inf of 2.77 h. Moreover, in series [1] (iv, i.v group, 1 mg/kg), the Tmax is 0.083 h, the clearance is 11.1 mL/min/kg and the half-life was 5.05 h. In series [1] (po, i.g group, 5 mg/kg), this compound displayed an area under the curve AUC(0-inf) of 4990 ng·h/mL, an AUC(0-t) of 4930 ng·h/mL, a Cmax of 1730 ng/mL and a mean residence time (MRT inf) of 2.98 h. In series [1] (po, i.g group, 5 mg/kg), the time of peak concentration (Tmax) was 0.833 h and the half-life was 3.27 h. The compound further yielded a F in series [1] (i.g group, 5 mg/kg) of 66.5%. Also, in series [2], the concentration for half-maximal inhibition (IC50) is 46 µM.

In series [1] (iv, i.v group, 1 mg/kg), `NC(=O)[C@@H]1C[C@H](F)CN1Cc1ccc(OCc2cccc(F)c2)cc1F` [Example 3, (2S,4S)-4-fluoro-1-(2-fluoro-4-(3-fluorobenzyloxy)benzyl)pyrrolidine-2-formamide] came in with an AUC(0-inf) of 979 ng·h/mL, an AUC(0-t) of 977 ng·h/mL, a Cmax of 1490 ng/mL and an MRT inf of 0.871 h. Further, in series [1] (iv, i.v group, 1 mg/kg), the Tmax came out at 0.083 h, the clearance stood at 17 mL/min/kg and the half-life was 1.13 h. In series [1] (po, i.g group, 5 mg/kg), this compound came in with a total exposure AUC(0-inf) of 2450 ng·h/mL, an AUC(0-t) of 2440 ng·h/mL, a maximum concentration (Cmax) of 1380 ng/mL and a mean residence time (MRT inf) of 1.44 h. In addition, in series [1] (po, i.g group, 5 mg/kg), the Tmax turned out to be 0.5 h and the half-life is 1.09 h. Besides, the F in series [1] (i.g group, 5 mg/kg) is recorded as 50.1%. For the same compound, in series [2], the IC50 was 29 µM.
